What was measured:
[1] = Solubility of carbamide peroxide in alcohols; assay type: physicochemical; conditions: solid carbamide peroxide
Description: On a weight basis, 18.5% carbamide peroxide, 3.0% glycerol, 73.1% ethyl alcohol, 4.5% luviskol VA 64-polyvinylpyrrolidone vinyl alcohol, and 0.9% Klucel HF, were mixed in a vessel and allowed to thicken. The source of peroxide was solid carbamide peroxide, which is only soluble in isopropyl alcohol to about 10% and in ethanol to about 20%, therefore luviskol VA 64-polyvinylpyrrolidone vinyl alcohol is added to supersaturate the carbamide peroxide, and glycerol is added to retain the carbamide peroxide in solution following ethanol evaporation.

[2] = Whitening effect of the nail after brushing the composition onto the nail surface (shows peroxide penetration); assay type: in vivo, human
Source text: (§1) Lower levels of hydrogen peroxide in the present invention can be used to treat infected skin or mucous membranes such as canker sores. Depending on the concentration of peroxide, penetration through a nail will also elicit sensations in certain subjects ranging from tingling to burning, which may be mildly painful at higher concentrations. Embodiments of the invention comprising an optional local anesthetic may be appropriate when using such higher concentrations. Effectiveness may be measured by a reduction of, or complete eradication of, the nail fungus over the course of treatment, and further evidenced by healthy nail growth. On a weight basis, 9% hydrogen peroxide, 21% water, 69.5% isopropyl alcohol, and 0.5% Klucel HF (a thickening agent, a hydroxypropylcellulose polymer), were mixed in a vessel and allowed to thicken. (The source of the peroxide was a 30% peroxide solution.) The composition could easily be brushed onto a nail surface, which dried in approximately 1 minute, and the residual polymer could subsequently be removed by washing in water. […] On a weight basis, 6% hydrogen peroxide, 6% water, 87.5% isopropyl alcohol, and 0.5% Klucel HF, were mixed in a vessel and allowed to thicken. […] The resulting composition differed from that of Example 2a in that there was no isopropyl alcohol or any other highly volatile solvent, the quantity thereof being replaced with water. […]

[3] = Sensation (tingling, burning, pain) under the nail after application; assay type: in vivo, human; conditions: 3% in a solvent system containing a highly volatile solvent; after 15-30 minutes
Source text: as §1

SMILES	solubility in ethanol [1]	solubility in isopropyl alcohol [1]	visual effect on normal finger nail ([2]; 3% aqueous concentration, thin film via a brush)	visual effect on nail ([2]; same amount and 3% concentration in a solvent system containing a highly volatile solvent)	sensation after application [3]
NC(N)=O.OO [carbamide peroxide]	about 20%	about 10%	–	–	–
OO [hydrogen peroxide, Hydrogen peroxide]	–	–	no visual effect	signs of whiteness	a slight tingling sensation may sometimes be felt
